Results reported in patent US12257287B2, “Glucagon-derived peptide and use thereof” (Tianjin Institute of Pharmaceutical Research Co., Ltd., priority 2018, dated 2025).
Converted amounts (≈) assume the structure as drawn. Marks after values point to notes of the source that are not given here. Numbered stars: 1 amine (or outer) side, 2 acyl side, 3 side chain; on linkers, the order of the positions; unused ones are H or OH. Square brackets hold non-standard residues; d marks the D form. Side chains are listed from the residue outwards. Peptide text beside a SMILES is read from it. * marks the point of attachment. C18 diacid = O=C(O)CCCCCCCCCCCCCCCCC(=O)*; γGlu = O=C(O)[C@H](CCC(=O)[*:2])N[*:1]; AEEA = NCCOCCOCC(=O)O; Aib = CC(C)(N)C(=O)O

Columns and labels:
[1] = biological target: T1, GC receptor (Homo sapiens, UniProt P47871); assay: GC receptor mediated cAMP production in vitro (HEK293 cells transfected with GC receptor); assay type: cell-based; details: 20 min at 37° C., read-out: GCGR (nM EC50)
T1 construct: expressed in transfected cells; host or cells: HEK293 cells
Excerpt: The medium was removed, the cells were lysed, and cAMP values were detected referring to the detection method described for the assay kit.

[2] = Effect on body weight of DIO mice after 14 days' administration; assay type: in vivo, C57BL/6J mice; details: for body weight reduction (in words): 14 days, conclusions on Tables 3 and 5
Excerpt: C57BL/6J mice (n=35), model group (n=30) were fed with H10060 high-fat diet to induce obesity (DIO), blank control group (n=5) were fed with standard diet, both for 34 weeks. One day before the first administration, the model group was randomly divided into groups according to their body weight (average body weight range 45.0-52.0 g), with 5 mice in each group, which respectively were model control group, positive control group (semaglutide), and test sample group (1 #-4 # are compound 1, compound 4, compound 6 and compound 22, respectively). The blank control group and model control group were given saline subcutaneously every day, while the positive control group and test sample group were administrated by subcutaneous injection every day for 14 days. The body weight of the animals was weighed and recorded every day, and the change rate of body weight (%) was calculated by comparing the body weight at the last administration day with the initial body weight. (initial body weight−last body weight)/initial body weight=body weight change rate (%). Calculation formula: […]
Calculated positive values indicate a decrease and negative values indicate an increase.
(§1) Methods are the same as that in Example 3, the test results of effects on body weight are shown in Table 5, and the effects on blood glucose are shown in Table 6. In the table, 5 #-9 # are compound 27, compound 35, compound 54, compound 57, and compound 66, respectively.

[3] = Glucose tolerance test in glucose-loaded DIO mice; assay type: in vivo; design: AUC reduction rate (%), Table 6: concentration or dose not given beside the values; details: for glucose tolerance / blood glucose lowering (in words): conclusions on Tables 4 and 6
Protocol: DIO mice fasted for 16 h, and 1 h after administration by subcutaneous injection, glucose solution (1 g/kg) was given intraperitoneally for glucose tolerance test. Blood glucose values were measured at 0.5, 1 and 1.5 h after glucose administration. The area under the blood glucose concentration curve (AUC) was calculated and compared with that of the model control group, and the blood glucose inhibition rate (%) was calculated.
as §1

[4] = Short-term administration: food intake and body weight in DIO mice; assay type: in vivo; details: 30 nmol/kg once every 24 h, twice, − decrease; for Rate of change in food intake (%): at 48 hours vs day before administration; for Body weight change: at 48 hours
Protocol: Method: diet-induced obese mice (DIO) with an average body weight of 52.5 g were divided into model control and test groups, 5 mice in each group. The test samples were dissolved in 10 mM PBS of pH7.4, injected once every 24 h at a dose of 30 nmol/kg, and administered twice. The model group was injected with solvent. Changes in food intake and body weight at 48 hours were measured, and the change rates were calculated compared to the day before administration.

[5] = physchem; assay type: physicochemical
[6] = Accelerated chemical stability in injection solvent system (HPLC-UV); assay type: physicochemical; details: 14 days, phosphate buffer pH 7.3 with Tween 80 and phenol, main peak area vs day 0
Protocol: The chemical stability of the compounds of the present invention in injection solution systems was evaluated by an accelerated stability test. Methods: an appropriate amount of compound of Example 1 was weighed, and dissolved in 10 mM pH8.5 sodium hydrogen phosphate buffer. The final pH value of the solution was adjusted to 7.3 with 0.1 N hydrochloric acid, and proper amounts of Tween 80 and phenol were added. The mixture was placed at 10° C. and 37° C. for 14 days, and detected by HPLC-UV. The main peak area was obtained by peak area normalization method, and the changes compared with day 0 were investigated. The HPLC detection method was the same as that in Example 6, and the mobile phase gradient was appropriately adjusted according to the situation of chromatographic peak separation.

[7] = pH 7.5, Solubility, pH 7.5, 10 mM phosphate buffer
[8] = pH 7.5, Solubility, pH 7.5, 20 mM phosphate buffer
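For Solubility in this document: compound added at 2 mg per mL of phosphate buffer, with the dissolved amount determined in the supernatant.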

T1 sequence (P47871 26-477): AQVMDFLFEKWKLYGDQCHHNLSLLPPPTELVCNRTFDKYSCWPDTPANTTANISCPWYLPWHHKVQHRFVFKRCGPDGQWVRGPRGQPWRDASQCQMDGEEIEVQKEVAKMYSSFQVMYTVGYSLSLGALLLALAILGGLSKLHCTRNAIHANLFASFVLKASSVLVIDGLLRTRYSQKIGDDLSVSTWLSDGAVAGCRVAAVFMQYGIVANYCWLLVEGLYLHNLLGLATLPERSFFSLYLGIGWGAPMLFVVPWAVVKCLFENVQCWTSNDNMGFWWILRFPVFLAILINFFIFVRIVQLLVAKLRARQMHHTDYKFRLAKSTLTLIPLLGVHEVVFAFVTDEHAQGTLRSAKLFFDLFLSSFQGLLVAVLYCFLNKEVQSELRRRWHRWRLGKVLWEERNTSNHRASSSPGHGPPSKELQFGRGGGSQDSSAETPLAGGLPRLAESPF

Compound	EC50 [1]	body weight change rate, Table 3 ([2]; DIO mice, subcutaneous injection every day for 14 days, (initial−last)/initial, positive values indicate a decrease)	AUC of blood glucose, Table 4 ([3]; DIO mice fasted 16 h, glucose 1 g/kg i.p. 1 h after s.c. administration, 0.5, 1, 1.5 h)	AUC reduction rate (%), Table 4 ([3]; blood glucose inhibition rate compared with model control group, DIO mice, glucose 1 g/kg i.p.)	Rate of change in food intake (%) [4]	Body weight change [4]	solubility [5, 7]	solubility [5, 8]	Change in purity % (10° C.) [6]	Change in purity % (37° C.) [6]	body weight reduction (in words) ([2]; DIO mice)	glucose tolerance / blood glucose lowering (in words) ([3]; DIO mice)	solubility ([5]; pH 8, Solubility, pH 8.0, 10 mM phosphate buffer)	solubility ([5]; pH 8, Solubility, pH 8.0, 20 mM phosphate buffer)	body weight change, Table 5 ([2]; Example 4, DIO mice, 14 days' administration, methods as in Example 3, positive values indicate a decrease, listed as 5#)	AUC of blood glucose, Table 6 ([3]; Example 4, DIO mice under glucose load, methods as in Example 3, listed as 5#)	AUC reduction rate (%), Table 6 ([3]; Example 4, compared with model control group, DIO mice under glucose load, listed as 5#)
CCCCCCCCCCCCCCCC(=O)N[C@@H](CCC(=O)N[C@@H](CCC(=O)NCCCC[C@H](NC(=O)[C@H](CC(=O)O)NC(=O)[C@H](CO)NC(=O)[C@@H](NC(=O)[C@H](Cc1ccccc1)NC(=O)[C@@H](NC(=O)CNC(=O)[C@H](CCC(N)=O)NC(=O)C(C)(C)NC(=O)[C@@H](N)Cc1c[nH]cn1)[C@@H](C)O)[C@@H](C)O)C(=O)N[C@@H](CO)C(=O)N[C@@H](CCCCN)C(=O)N[C@@H](Cc1ccc(O)cc1)C(=O)N[C@@H](CC(C)C)C(=O)N[C@@H](CCC(=O)O)C(=O)N[C@@H](CCC(=O)O)C(=O)N[C@@H](CCCNC(=N)N)C(=O)N[C@@H](C)C(=O)N[C@@H](C)C(=O)N[C@@H](CCCCN)C(=O)N[C@@H](CCC(=O)O)C(=O)N[C@@H](Cc1ccccc1)C(=O)N[C@H](C(=O)N[C@@H](C)C(=O)N[C@@H](Cc1c[nH]c2ccccc12)C(=O)N[C@@H](CC(C)C)C(=O)N[C@@H](CCC(=O)O)C(=O)N[C@@H](C)C(=O)NCC(=O)NCC(=O)N1CCC[C@H]1C(=O)N[C@@H](CO)C(=O)N[C@@H](CO)C(=O)NCC(N)=O)[C@@H](C)CC)C(=O)O)C(=O)O [Compound 1] (HELM PEPTIDE1{H.[Aib].Q.G.T.F.T.S.D.K.S.K.Y.L.E.E.R.A.A.K.E.F.I.A.W.L.E.A.G.G.P.S.S.G.[am]}|PEPTIDE2{[CCCCCCCCCCCCCCCC(=O)[*:2]].[gGlu].[gGlu]}$PEPTIDE1,PEPTIDE2,10:R3-3:R2$$$V2.0; N-terminus assumed)	0.0574 nM	28.3%	7.24 ± 1.33 mmol·h/L	65.8** %	−58%	-2.8 g	> 2000 µg/mL	> 2000 µg/mL	−1.4%	−5.2%	–	–	–	–	–	–	–
CCCCCCCCCCCCCCCC(=O)N[C@@H](CCC(=O)N[C@@H](CCC(=O)NCCCC[C@H](NC(=O)[C@H](C)NC(=O)[C@H](CCCNC(=N)N)NC(=O)[C@H](CCCCN)NC(=O)[C@H](CCC(=O)O)NC(=O)[C@H](CC(=O)O)NC(=O)[C@H](CC(C)C)NC(=O)[C@H](Cc1ccc(O)cc1)NC(=O)[C@H](CCCCN)NC(=O)[C@H](CO)NC(=O)[C@H](Cc1ccc(O)cc1)NC(=O)[C@H](CC(=O)O)NC(=O)[C@H](CO)NC(=O)[C@@H](NC(=O)[C@H](Cc1ccccc1)NC(=O)[C@@H](NC(=O)CNC(=O)[C@H](CCC(N)=O)NC(=O)C(C)(C)NC(=O)[C@@H](N)Cc1c[nH]cn1)[C@@H](C)O)[C@@H](C)O)C(=O)N[C@@H](CCC(=O)O)C(=O)N[C@@H](Cc1ccccc1)C(=O)N[C@H](C(=O)N[C@@H](C)C(=O)N[C@@H](Cc1c[nH]c2ccccc12)C(=O)N[C@@H](CC(C)C)C(=O)N[C@@H](CCC(=O)O)C(=O)N[C@@H](C)C(=O)NCC(=O)NCC(=O)N1CCC[C@H]1C(=O)N[C@@H](CO)C(=O)N[C@@H](CO)C(=O)NCC(N)=O)[C@@H](C)CC)C(=O)O)C(=O)O [Compound 57] (HELM PEPTIDE1{H.[Aib].Q.G.T.F.T.S.D.Y.S.K.Y.L.D.E.K.R.A.K.E.F.I.A.W.L.E.A.G.G.P.S.S.G.[am]}|PEPTIDE2{[CCCCCCCCCCCCCCCC(=O)[*:2]].[gGlu].[gGlu]}$PEPTIDE1,PEPTIDE2,20:R3-3:R2$$$V2.0; N-terminus assumed)	0.081 nM	–	–	–	−71%	-2.6 g	1460 µg/mL (≈ 343 µM)	1310 µg/mL (≈ 308 µM)	−1.1%	−4.0%	significantly reduced body weight	significantly improved glucose tolerance	1840 µg/mL (≈ 432 µM)	1530 µg/mL (≈ 359 µM)	–	–	–
CCCCCCCCCCCCCCCC(=O)N[C@@H](CCC(=O)N[C@@H](CCC(=O)NCCCC[C@H](NC(=O)[C@H](CC(=O)O)NC(=O)[C@H](CO)NC(=O)[C@@H](NC(=O)[C@H](Cc1ccccc1)NC(=O)[C@@H](NC(=O)CNC(=O)[C@H](CCC(N)=O)NC(=O)C(C)(C)NC(=O)[C@@H](N)Cc1c[nH]cn1)[C@@H](C)O)[C@@H](C)O)C(=O)N[C@@H](CO)C(=O)N[C@@H](CCCCN)C(=O)N[C@@H](Cc1ccc(O)cc1)C(=O)N[C@@H](CC(C)C)C(=O)N[C@@H](CCC(=O)O)C(=O)N[C@@H](CCC(=O)O)C(=O)N[C@@H](CCCNC(=N)N)C(=O)N[C@@H](C)C(=O)N[C@@H](C)C(=O)N[C@@H](CCCCN)C(=O)N[C@@H](CCC(=O)O)C(=O)N[C@@H](Cc1ccccc1)C(=O)N[C@H](C(=O)N[C@@H](CCC(=O)O)C(=O)N[C@@H](Cc1c[nH]c2ccccc12)C(=O)N[C@@H](CC(C)C)C(=O)N[C@@H](CCC(=O)O)C(=O)NCC(=O)NCC(=O)N1CCC[C@H]1C(=O)N[C@@H](CO)C(=O)N[C@@H](CO)C(=O)NCC(N)=O)C(C)C)C(=O)O)C(=O)O [Compound 5] (HELM PEPTIDE1{H.[Aib].Q.G.T.F.T.S.D.K.S.K.Y.L.E.E.R.A.A.K.E.F.V.E.W.L.E.G.G.P.S.S.G.[am]}|PEPTIDE2{[CCCCCCCCCCCCCCCC(=O)[*:2]].[gGlu].[gGlu]}$PEPTIDE1,PEPTIDE2,10:R3-3:R2$$$V2.0; N-terminus assumed)	0.193 nM	–	–	–	–	–	–	–	–	–	–	–	–	–	27.74	7.12 ± 1.30 mmol·h/L	64.2** %
CC[C@H](C)[C@H](NC(=O)[C@H](Cc1ccccc1)NC(=O)[C@H](CCC(=O)O)NC(=O)[C@H](CCCCN)NC(=O)[C@H](C)NC(=O)[C@H](C)NC(=O)[C@H](CCCNC(=N)N)NC(=O)[C@H](CCC(=O)O)NC(=O)[C@H](CCC(=O)O)NC(=O)[C@H](CC(C)C)NC(=O)[C@H](Cc1ccc(O)cc1)NC(=O)[C@H](CCCCN)NC(=O)[C@H](CO)NC(=O)[C@H](CCCCNC(=O)COCCOCCNC(=O)COCCOCCNC(=O)CC[C@H](NC(=O)CCCCCCCCCCCCCCCCC(=O)O)C(=O)O)NC(=O)[C@H](CC(=O)O)NC(=O)[C@H](CO)NC(=O)[C@@H](NC(=O)[C@H](Cc1ccccc1)NC(=O)[C@@H](NC(=O)CNC(=O)[C@H](CCC(N)=O)NC(=O)C(C)(C)NC(=O)[C@@H](N)Cc1c[nH]cn1)[C@@H](C)O)[C@@H](C)O)C(=O)N[C@@H](C)C(=O)N[C@@H](Cc1c[nH]c2ccccc12)C(=O)N[C@@H](CC(C)C)C(=O)N[C@@H](CCC(=O)O)C(=O)N[C@@H](C)C(=O)NCC(=O)NCC(=O)N1CCC[C@H]1C(=O)N[C@@H](CO)C(=O)N[C@@H](CO)C(=O)NCC(N)=O [Compound 27] (H-H[Aib]QGTFTSDK([AEEA-AEEA-γGlu-C18 diacid])SKYLEERAAKEFIAWLEAGGPSSG-NH2; N-terminus assumed)	0.014 nM	–	–	–	−55%	-1.9 g	> 2000 µg/mL	> 2000 µg/mL	−1.8%	−4.6%	significantly reduced body weight	significantly improved glucose tolerance	–	–	–	–	–
